Experimental data: the supplement of paper PMC11061612

Key:
[1] = tested on: MS-1 (Small Cell Lung Carcinoma); assay: Bliss excess, mean over the matrix (fraction); higher = more synergy
Outline: (§1)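 Cell lines grown in DMEM/F12 or RPMI with 10% FBS were plated in 1536-well plates and held 24 hours at 37°C, 5% CO2 before 72 hours of exposure to two-drug dose matrices, with DMSO typically at 0.2%. CellTiter-Glo 2.0 luminescence gave viability, which was converted to inhibition. Vehicle wells were set to 0 and blank wells to 1. Combination Emax is the second-highest inhibition in the matrix, and Bliss excess is the observed combination effect minus the expected EA + EB − EA·EB, where EA and EB are the single-agent effects.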

[2] = tested on: KP-4 (Pancreatic Carcinoma); assay: as above
Outline: as §1

[3] = tested on: MOLT-13 (T-Lymphoblastic Leukemia); assay: as above
Outline: as §1

NB1 (Neuroblastoma) = assay: as above
Outline: as §1

GAK (Melanoma) = assay: as above
Outline: as §1

[4] = tested on: SK-CO-1 (Colorectal Carcinoma); assay: as above
Outline: as §1

[5] = tested on: SNU-423 (Hepatocellular Carcinoma); assay: as above
Outline: as §1

[6] = tested on: HT-1080 (Other Solid Carcinomas); assay: as above
Outline: as §1

[7] = tested on: NMC-G1 (Low Grade Glioma); assay: as above
Outline: as §1

[8] = tested on: MM1S (Plasma Cell Myeloma); assay: as above
Outline: as §1

IST-MEL1 (Melanoma) = assay: as above
Outline: as §1

[9] = tested on: Raji (Burkitt's Lymphoma); assay: as above
Outline: as §1

[10] = tested on: SNU-407 (Colorectal Carcinoma); assay: as above
Outline: as §1

UACC-257 (Melanoma) = assay: as above
Outline: as §1

[11] = tested on: IA-LM (Non-Small Cell Lung Carcinoma); assay: as above
Outline: as §1

[12] = tested on: COR-L88 (Small Cell Lung Carcinoma); assay: as above
Outline: as §1

[13] = tested on: NCI-H1341 (Small Cell Lung Carcinoma); assay: as above
Outline: as §1

[14] = tested on: BxPC-3 (Pancreatic Carcinoma); assay: combination Emax (second highest fraction inhibited in the dose matrix, 72 h); higher = more inhibition; extreme values may be limits of the assay
Outline: as §1

[15] = tested on: SNU-407 (Colorectal Carcinoma); assay: as above
Outline: as §1

[16] = tested on: NCI-H1876 (Small Cell Lung Carcinoma); assay: as above
Outline: as §1
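Throughout, for Bliss excess, mean over the matrix: after 72 h of two-drug dosing.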

Row | SMILES | Bliss excess [1] | Bliss excess [2] | Bliss excess [3] | Bliss excess (NB1 (Neuroblastoma)) | Bliss excess (GAK (Melanoma)) | Bliss excess [4] | Bliss excess [5] | Bliss excess [6] | Bliss excess [7] | Bliss excess [8] | Bliss excess (IST-MEL1 (Melanoma)) | Bliss excess [9] | Bliss excess [10] | Bliss excess (UACC-257 (Melanoma)) | Bliss excess [11] | Bliss excess [12] | Bliss excess [13] | combination Emax [14] | combination Emax [15] | combination Emax [16]
1 | CN(CCO)CC[C@H](CSc1ccccc1)Nc1ccc(S(=O)(=O)NC(=O)c2ccc(N3CCC([C@@H](O)c4ccccc4-c4ccc(Cl)cc4)CC3)cc2)cc1S(=O)(=O)C(F)(F)F [AZD4320] + Cc1cc2ncnn2cc1Nc1ncc2c(n1)n(C1CCOCC1)c(=O)n2C [AZD7648] (first compound max 1 µM, 7x7, partner max 10 µM) | -0.0409 | -0.0578 | 0.0309 | -0.0148 | 0.0066 | -0.0224 | -0.0311 | -0.0757 | -0.0452 | 0.0657 | -0.0465 | 0.0189 | 0.0313 | -0.0351 | -0.0482 | 0.0052 | 0.0254 | 0.0888 | 0.721 | 0.925
2 | COc1cccc(OCCCN)c1-c1cc(Nc2cnc(C#N)cn2)n[nH]1 [Prexasertib] + CCc1c2c(nc3ccc(O)cc13)-c1cc3c(c(=O)n1C2)COC(=O)[C@]3(O)CC [SN-38] (first compound max 1 µM, 7x7, partner max 0.3 µM) | -0.0051 | 0.0454 | -0.0112 | -0.0529 | 0.0087 | -0.074 | 0.0169 | -0.0274 | -0.105 | -0.0065 | -0.0552 | -0.0279 | -0.0384 | -0.0664 | -0.0012 | -0.0204 | -0.0174 | 0.796 | 0.639 | 1
3 | Cc1c2c(nn1C)CSCc1cc(n(C)n1)CSc1cc(c3ccccc3c1)OCCCc1c(C(=O)O)n(C)c3c-2c(Cl)ccc13 [AZD5991] + C1CN(CCC1(C(=O)N[C@@H](CCO)C2=CC=C(C=C2)Cl)N)C3=NC=NC4=C3C=CN4 [Capivasertib] (first compound max 1 µM, 7x7, partner max 3 µM) | 0.0265 | -0.005 | -0.0135 | -0.0186 | -0.029 | -0.0119 | -0.0822 | -0.0594 | -0.0172 | -0.0098 | 0.0025 | 0.0312 | 0.0036 | 0.0061 | -0.021 | -0.0058 | 0.0609 | 0.126 | 0.774 | 0.673
